Laboratory results published in ChEMBL document CHEMBL4811240, “Discovery of N-substituted sulfamoylbenzamide derivatives as novel inhibitors of STAT3 signaling pathway based on Niclosamide” (Eur J Med Chem, 2021).

Experiments:
L3.6pl = test: Antiproliferative activity against human L3.6 cells assessed as inhibition of cell viability at 10 uM after 48 hrs by MTT assay relative to control; type: functional
MDA-MB-231 [1] = test: Antiproliferative activity against human MDA-MB-231 cells assessed as inhibition of cell viability at 10 uM after 48 hrs by MTT assay relative to control; type: functional
HCT-116 [2] = test: Antiproliferative activity against human HCT116 cells assessed as inhibition of cell viability at 10 uM after 48 hrs by MTT assay relative to control; type: functional
SW480 [3] = test: Antiproliferative activity against human SW480 cells assessed as inhibition of cell viability at 10 uM after 48 hrs by MTT assay relative to control; type: functional
[4] = Lipophilicity, log P of the compound; type: physicochemical; conditions: octanol/water
SW480 [5] = test: Antiproliferative activity against human SW480 cells assessed as inhibition of cell viability after 48 hrs by MTT assay; type: functional, cell-based; conditions: SW480, 48 h
HCT-116 [6] = test: Antiproliferative activity against human HCT-116 cells assessed as inhibition of cell viability after 48 hrs by MTT assay; type: functional, cell-based; conditions: HCT-116, 48 h
MDA-MB-231 [7] = test: Antiproliferative activity against human MDA-MB-231 cells assessed as inhibition of cell viability after 48 hrs by MTT assay; type: functional, cell-based; conditions: MDA-MB-231, 48 h

Compound	inhibition at 10 µM (L3.6pl)	inhibition at 10 µM (MDA-MB-231 [1])	inhibition at 10 µM (HCT-116 [2])	inhibition at 10 µM (SW480 [3])	logP [4]	IC50 (SW480 [5])	IC50 (HCT-116 [6])	IC50 (MDA-MB-231 [7])
COc1cc(NC(=O)c2cccc(S(N)(=O)=O)c2)cc(OC)c1	22.2%	39.6%	47.1%	40.4%	–	–	–	–
NS(=O)(=O)c1cccc(C(=O)Nc2ccccc2C(F)(F)F)c1	21.9%	42.8%	40.3%	24.8%	–	–	–	–
COc1ccc(C(=O)NS(=O)(=O)c2cc(C(=O)Nc3cc(OC)c(OC)c(OC)c3)ccc2Cl)cc1	18.3%	13.1%	4.8%	20.1%	–	–	–	–
NS(=O)(=O)c1cccc(C(=O)Nc2cccnc2)c1	32.7%	42.9%	8.11%	28.3%	–	–	–	–
COc1cc(OC)cc(C(=O)NS(=O)(=O)c2cc(C(=O)Nc3cc(OC)c(OC)c(OC)c3)ccc2Cl)c1	-13.1%	4.11%	-2.37%	16.1%	–	–	–	–
COc1ccccc1NC(=O)c1cccc(S(N)(=O)=O)c1	9.7%	27.1%	40.3%	18.2%	–	–	–	–
COc1cc(NC(=O)c2ccc(Cl)c(S(=O)(=O)NC(=O)C=C(C)C)c2)cc(OC)c1OC	-7.12%	22.3%	20.1%	22.6%	–	–	–	–
NS(=O)(=O)c1cccc(NC(=O)c2ccc(Cl)c(S(N)(=O)=O)c2)c1	12.1%	52.8%	52.2%	34.3%	1.19	> 20 µM	17.2 µM	11.9 µM
COc1cc(CNC(=O)c2ccc(Cl)c(S(N)(=O)=O)c2)cc(OC)c1OC	38.2%	44.4%	34.3%	27.4%	–	–	–	–
NS(=O)(=O)c1cccc(C(=O)Nc2ccc(C(F)(F)F)cc2)c1	18.1%	26.4%	19.1%	38.1%	–	–	–	–
COc1cc(NC(=O)c2cccc(S(N)(=O)=O)c2)cc(OC)c1OC	19.5%	59.4%	57.7%	26.9%	0.79	> 20 µM	10.7 µM	12.7 µM
COc1ccc(NC(=O)c2cccc(S(N)(=O)=O)c2)cc1	23.9%	32.3%	42.7%	38.4%	–	–	–	–
COc1cccc(C(=O)NS(=O)(=O)c2cc(C(=O)Nc3cc(OC)c(OC)c(OC)c3)ccc2Cl)c1	-0.51%	23.5%	21.3%	22%	–	–	–	–
COc1cc(NC(=O)c2ccc(Cl)c(S(=O)(=O)NC(=O)c3cccc([N+](=O)[O-])c3)c2)cc(OC)c1OC	-6.13%	14.3%	3.74%	12.1%	–	–	–	–
NS(=O)(=O)c1cccc(C(=O)Nc2ccc([N+](=O)[O-])cc2Cl)c1	21.3%	43.2%	15.1%	44.1%	–	–	–	–
COc1cc(NC(=O)c2ccc(Cl)c(S(N)(=O)=O)c2)c(C(=O)O)cc1OC	11.8%	66.7%	47.2%	30.2%	–	–	–	–
COc1ccc(OC)c(NC(=O)c2ccc(Cl)c(S(N)(=O)=O)c2)c1	24.2%	26.7%	28.2%	23.2%	–	–	–	–
NS(=O)(=O)c1cc(C(=O)Nc2c(F)c(F)c(F)c(F)c2F)ccc1Cl	12.6%	33.1%	34%	27.1%	–	–	–	–
COc1cc(NC(=O)c2ccc(Cl)c(S(=O)(=O)NC(C)=O)c2)cc(OC)c1OC	-15.2%	19.4%	27.2%	19.5%	–	–	–	–
C/C=C/C(=O)NS(=O)(=O)c1cc(C(=O)Nc2cc(OC)c(OC)c(OC)c2)ccc1Cl	11.7%	18.4%	29.3%	24.6%	–	–	–	–
C=C(C)C(=O)NS(=O)(=O)c1cc(C(=O)Nc2cc(OC)c(OC)c(OC)c2)ccc1Cl	-11.3%	4.84%	30%	22.3%	–	–	–	–
COc1ccccc1C(=O)NS(=O)(=O)c1cc(C(=O)Nc2cc(OC)c(OC)c(OC)c2)ccc1Cl	-18.3%	13.1%	16.2%	33.9%	–	–	–	–
COc1cccc(NC(=O)c2cccc(S(N)(=O)=O)c2)c1	15.2%	57.6%	51.4%	28.3%	0.96	> 20 µM	11.2 µM	13.6 µM

Compound	inhibition at 10 µM (L3.6pl)	inhibition at 10 µM (MDA-MB-231 [1])	inhibition at 10 µM (HCT-116 [2])	inhibition at 10 µM (SW480 [3])	logP [4]	IC50 (SW480 [5])	IC50 (HCT-116 [6])	IC50 (MDA-MB-231 [7])
COc1ccc(OC)c(NC(=O)c2cccc(S(N)(=O)=O)c2)c1	20.5%	37%	46.4%	31.9%	–	–	–	–
NS(=O)(=O)c1cc(C(=O)Nc2ccc(F)c(Cl)c2)ccc1Cl	30.2%	41.5%	47.5%	49.1%	–	–	–	–
COc1cc(NC(=O)c2ccc(Cl)c(S(=O)(=O)NC(=O)c3ccc(Cl)nc3)c2)cc(OC)c1OC	-15.7%	5.01%	-9.17%	8.11%	–	–	–	–
COc1ccc(CNC(=O)c2ccc(Cl)c(S(N)(=O)=O)c2)cc1	29%	54%	43.1%	16.2%	–	–	–	–
COc1cc(NC(=O)c2ccc(Cl)c(S(N)(=O)=O)c2)cc(OC)c1	26.3%	31.8%	42.5%	27.2%	–	–	–	–
NS(=O)(=O)c1cc(C(=O)Nc2ccccc2C(F)(F)F)ccc1Cl	21.2%	44.9%	45.4%	30.7%	–	–	–	–
COc1cc(NC(=O)c2ccc(Cl)c(S(=O)(=O)NC(=O)c3c(OC)cccc3OC)c2)cc(OC)c1OC	4.06%	18.1%	10.2%	30.6%	–	–	–	–
NS(=O)(=O)c1cc(C(=O)Nc2cccc(C(F)(F)F)c2)ccc1Cl	22.3%	29%	41.4%	42.9%	–	–	–	–
COc1cc(NC(=O)c2ccc(Cl)c(S(=O)(=O)NC(=O)c3ccccc3)c2)cc(OC)c1OC	-27.8%	2.05%	32.3%	29.5%	–	–	–	–
NS(=O)(=O)c1cc(C(=O)Nc2ccc(N3CCOCC3)cc2)ccc1Cl	12.2%	43.3%	39.3%	21.9%	–	–	–	–
NS(=O)(=O)c1cccc(C(=O)Nc2cccc(C(F)(F)F)c2)c1	9.27%	27.2%	39.7%	34.4%	–	–	–	–
NC(N)=NS(=O)(=O)c1ccc(NC(=O)c2ccc(Cl)c(S(N)(=O)=O)c2)cc1	11.1%	46.4%	41.3%	27.3%	–	–	–	–
NS(=O)(=O)c1cc(C(=O)NCc2cccc(Cl)c2Cl)ccc1Cl	11.6%	51.5%	70.4%	19.6%	2.97	> 20 µM	9.62 µM	> 20 µM
CN1CCN(c2ccc(NC(=O)c3ccc(Cl)c(S(N)(=O)=O)c3)cc2)CC1	14.6%	37.3%	40.5%	38.3%	–	–	–	–
COc1ccc(NC(=O)c2ccc(Cl)c(S(N)(=O)=O)c2)cc1	22.8%	30.9%	20.2%	31.9%	–	–	–	–
NS(=O)(=O)c1cc(C(=O)Nc2ccc(Cl)c(F)c2)ccc1Cl	26.4%	43.7%	44.1%	48.1%	–	–	–	–
COc1cccc(NC(=O)c2ccc(Cl)c(S(N)(=O)=O)c2)c1	22.3%	42.4%	43%	29.3%	–	–	–	–
NS(=O)(=O)c1ccc(O)c(C(=O)Nc2ccc([N+](=O)[O-])cc2Cl)c1	44.7%	48.2%	64%	-8.3%	–	–	–	–
C=CC(=O)NS(=O)(=O)c1cc(C(=O)Nc2cc(OC)c(OC)c(OC)c2)ccc1Cl	-12.9%	2.82%	24.2%	28.9%	–	–	–	–
CC(C)(C)OC(=O)c1ccc(NC(=O)c2cccc(S(N)(=O)=O)c2)cc1	31.2%	91.1%	79.3%	55.4%	1.54	–	9.82 µM	0.7 µM
COc1cc(NC(=O)c2ccc(Cl)c(S(N)(=O)=O)c2)cc(OC)c1OC	42.1%	93.3%	87.9%	82.2%	–	–	–	–
COc1ccccc1NC(=O)c1ccc(Cl)c(S(N)(=O)=O)c1	22.9%	19.8%	37.3%	49.3%	–	–	–	–
CCC(=O)NS(=O)(=O)c1cc(C(=O)Nc2cc(OC)c(OC)c(OC)c2)ccc1Cl	1.47%	19.6%	27.2%	21.3%	–	–	–	–
